# Data reported in article PMC6054628.
# Key:
# [1] = Head-to-tail native chemical ligation in two-module microfluidic flow: SEAon peptide amide rearranged to SEAE thioester (pH 1, TCEP, 60 min, 90 or 65 C), then MPAA (0.4 M)/Na2HPO4 (0.2 M) pH 7.3 cyclisation onto N-terminal Cys; conditions: 30-membered ring, water (phosphate buffer, MPAA, TCEP; decane segmented carrier; 6 M Gn.HCl for 4l-p), 0.6 mM, 37.0 °C, 0.067 h, 2 steps
# [2] = Head-to-tail native chemical ligation in two-module microfluidic flow: SEAon peptide amide rearranged to SEAE thioester (pH 1, TCEP, 60 min, 90 or 65 C), then MPAA (0.4 M)/Na2HPO4 (0.2 M) pH 7.3 cyclisation onto N-terminal Cys, 4 min; conditions: 30-membered ring, water (phosphate buffer, MPAA, TCEP; decane segmented carrier), 0.6 mM, 37.0 °C, 0.067 h, 2 steps, scale: %
# [3] = from CC[C@H](C)[C@H](NC(=O)[C@@H](N)CS)C(=O)N[C@@H](CC(C)C)C(=O)N[C@@H](CCCCN)C(=O)N[C@@H](CCC(=O)O)C(=O)NCC(=O)N[C@H](C(=O)N[C@@H](Cc1c[nH]cn1)C(=O)NCC(=O)N1CCC[C@H]1C(=O)SCCNCCS)C(C)C
# [4] = from CC[C@H](C)[C@H](NC(=O)[C@@H](N)CS)C(=O)N[C@@H](CC(C)C)C(=O)N[C@@H](CCCCN)C(=O)N[C@@H](CCC(=O)O)C(=O)NCC(=O)N[C@H](C(=O)N[C@@H](Cc1c[nH]cn1)C(=O)NCC(=O)N[C@H](C(=O)SCCNCCS)[C@@H](C)O)C(C)C
SMILES,"ring closure, yield over several steps [1, 3] [%]","ring closure, conversion by HPLC [2, 3]","ring closure, yield over several steps [1, 4] [%]","ring closure, conversion by HPLC [2, 4]"
CC[C@H](C)[C@@H]1NC(=O)[C@H](CS)NC(=O)[C@@H]2CCCN2C(=O)CNC(=O)[C@H](Cc2c[nH]cn2)NC(=O)[C@H](C(C)C)NC(=O)CNC(=O)[C@H](CCC(=O)O)NC(=O)[C@H](CCCCN)NC(=O)[C@H](CC(C)C)NC1=O [H-CILKEGVHGP-SEAon (via SEAE thioester)],38,70,,
CC[C@H](C)[C@@H]1NC(=O)[C@H](CS)NC(=O)[C@H]([C@@H](C)O)NC(=O)CNC(=O)[C@H](Cc2c[nH]cn2)NC(=O)[C@H](C(C)C)NC(=O)CNC(=O)[C@H](CCC(=O)O)NC(=O)[C@H](CCCCN)NC(=O)[C@H](CC(C)C)NC1=O [H-CILKEGVHGT-SEAon (via SEAE thioester)],,,49,73
